Source: patent US20060122276A1, “Agent for inhibiting membrane virus reproduction, method for the production thereof, pharmaceutical composition and method for inhibiting viral infections” (priority 2003, published 2006)
Like-named read-outs stand apart in the source and are kept apart here.

What was measured:
[1] = system: HIV-1; details: for Protection of MT-4 cells against viral cytopathic action of HIV-1: HIV-1 100 TCD50
Experimental: Cells Reinoculated humans lymphoblastoid cells MT-4 were used. […] The viability of the cells was determined from the color of a 0.4% solution of trypan blue.
Retrovir (azidothymidin) produced by GlaxoWellcome (Great Britain) was used as positive control.
The Antiviral activity of the preparations was investigated on a model of lymphoblastoid cells in a plastic 24-cell plate. The virus dose was 100 TCD50 (50% tissue cytopathic dose). […] The activity of the preparation was determined from the inhibition of the virus-induced cytopathic action (CPA) in the cell cultures and the virus antigen level in the culture fluid by immunoenzymatic analysis.

[2] = system: hepatitis C virus; test: Viability of hepatitis C virus-infected SPEV cell cultures; assay type: cell-based, hepatitis C virus genotype 1b; details: 7th day after infecting (control 0)
Experimental: In our work we used cytopathogenic strain of hepatitis C virus belonging to geno-type 1b. The strain was isolated from the blood serum of a patient suffering from chronic viral hepatitis C, identified as hepatic C virus. Infective doses of HSV equal to 10 TCD of 50/20 μl were used in the investigation.
Cultures of reinoculated porcine embryo kidney cells (SPEV), highly sensitive to the pathogenic action of HSV, obtained from “Narva” Company (Russia) were employed. These cultures were used in the form of a one day monolayer of cells, grown in 24-cell plastic plates.
For studying the antiviral activity of the preparation, the preparation was introduced in various concentrations into the SPEV cell cultures at the moment of infection and in 24 hours after the infection with hepatitis C virus on the cell in 24-cell plastic culture plates.
The viability of the SPEV cell cultures infected and non-infected with HSV was studied on the 7th day after the infection.

[3] = system: HIV-1; details: for Optical density: 6th day, values >0.086 are positive for HIV
[4] = system: human embryo fibroblasts (M-21); test: Cytotoxic action on non-infected M-21 cells; assay type: cell-based; details: 500 and 1000 μg/ml; 3-days follow-up
[5] = system: Hep 2 cells; test: Apoptosis signs in Hep 2 cells (DNA fragmentation, Fas-antigen mRNA forms); assay type: cell-based, human; details: for Redistribution of soluble and membrane Fas-antigen mRNA forms indicative of Fas-dependent apoptosis: 10, 50, 100 μg/ml
From the text: A reduction in the intensity of protein profiles was observed on the second day and most dramatically on the seventh day at the studied concentrations of the preparation as compared with control. This can be indicative of a reduction in the number of cells because of inhibition of the mitotic activity of cells in the presence of the preparation. On the 7th day of the action of the preparation a reduction in the number of DNA compared with control was observed. Checking for the presence of DNA fragmentation has shown its absence, i.e., apoptosis manifestations were not detected.
For establishing the influence of the preparation on intracellular biosynthetic processes, we have analyzed the synthesis and maturing in the Hep 2 cells of Fas-antigen mRNA. Fas-antigen is a receptor protein of the signal of programmed death of cells—apoptosis—and it can exist in two forms: in membrane form and in soluble form. It has been shown that in the presence of the preparation there occurs redistribution of the alternative forms of the Fas-antigen mRNA, this being indicative of the influence of the preparation on the biosynthetic processes in Hep 2 cells on the transcripton level; however, reconstructions indicative of the feasibility of Fas-dependent apoptosis are absent (FIG. 8).

[6] = 0.25 μg/ml, HIV-1-infected lymphoblastoid cells, 5th day
[7] = 0.5 μg/ml, HIV-1-infected lymphoblastoid cells, 5th day
[8] = 1 μg/ml, 2 hrs of contact, washing off of cells No, 6th day
[9] = 1 μg/ml, 2 hrs of contact, washing off of cells Yes, 6th day
[10] = 1.0 μg/ml, HIV-1-infected lymphoblastoid cells, 5th day
[11] = 1 μg/ml, exposure 1 hr, washing off of cells Yes, 6th day
[12] = 1 μg/ml, exposure 2 hrs, washing off of cells Yes, 6th day
[13] = 1 μg/ml, exposure 24 hrs, washing off of cells Yes, 6th day
[14] = 1 μg/ml, exposure during the entire experiment, washing off of cells No, 6th day
[15] = 10 μg/ml, 2 hrs of contact, washing off of cells No, 6th day
[16] = 10 μg/ml, 2 hrs of contact, washing off of cells Yes, 6th day
[17] = 10 μg/ml, HIV-1-infected lymphoblastoid cells, 5th day
[18] = 10 μg/ml, exposure 2 hrs (first such line, r25), washing off of cells Yes, 6th day
[19] = 10 μg/ml, exposure 2 hrs (second such line, r29), washing off of cells Yes, 6th day
[20] = 10 μg/ml, exposure 24 hrs, washing off of cells Yes, 6th day
[21] = 10 μg/ml, exposure during the entire experiment, washing off of cells No, 6th day
[22] = 100 μg/ml, HIV-1-infected lymphoblastoid cells, 5th day
[23] = preparation 1 hr after infecting, HIV-1
[24] = preparation 2 hrs before infecting, HIV-1
[25] = preparation + virus simultaneously, HIV-1

In the case of “sodium salt of fullerene-polyamino-caproic acid”, the “CPE/syncytia, %” value [1, 6] is reported as 50%, the “Number of cells in 1 ml × 1000” value [1, 6] is reported as 1000 in 1 ml × 1000 and the “CPE/syncytia, %” value [1, 7] is reported as 25%. The “Number of cells in 1 ml × 1000” value [1, 7] was 1299 in 1 ml × 1000, the “CPE/syncytia, +” value [1, 8] was 0 + and the “Number of cells × 10^3 ml” value [1, 8] was 2200 × 10^3 ml. For the same substance, the “CPE/syncytia, +” value ([1]; 1 μg/ml, 2 hrs of contact, washing off of cells No, 8th day) was 0 +, the “CPE/syncytia, +” value [1, 9] was 2.5+ and the “Number of cells × 10^3 ml” value [1, 9] was 1700 × 10^3 ml. The “CPE/syncytia, +” value ([1]; 1 μg/ml, 2 hrs of contact, washing off of cells Yes, 8th day) was 3.5+, the “Protection of MT-4 cells against viral cytopathic action of HIV-1” value ([1]; 1 μg/ml) was “full protection” and the “Protection of MT-4 cells against viral cytopathic action of HIV-1” value ([1]; 1 μg/ml, listed as sodium salt of fullerene-polyamino-propanoic acid) was “Full protection”. The “CPE/syncytia, %” value [1, 10] was 0%, the “Number of cells in 1 ml × 1000” value [1, 10] was 1466 in 1 ml × 1000 and the “CPE/syncytia, +” value [1, 11] was 0.5+. The “Number of cells × 10^3 ml” value [1, 11] was 2000 × 10^3 ml, the “CPE/syncytia, +” value ([1]; 1 μg/ml, exposure 1 hr, washing off of cells Yes, 8th day) was 1.5+ and the “CPE/syncytia, +” value [1, 12] was 0.5+. For the same substance, the “Number of cells × 10^3 ml” value [1, 12] was 1700 × 10^3 ml, the “CPE/syncytia, +” value ([1]; 1 μg/ml, exposure 2 hrs, washing off of cells Yes, 8th day) was 1+ and the “CPE/syncytia, +” value [1, 13] was 0.1+. The “Number of cells × 10^3 ml” value [1, 13] was 2100 × 10^3 ml, the “CPE/syncytia, +” value ([1]; 1 μg/ml, exposure 24 hrs, washing off of cells Yes, 8th day) was 0.5+ and the “CPE/syncytia, +” value [1, 14] was 0 +. For the same substance, the “Number of cells × 10^3 ml” value [1, 14] was 2300 × 10^3 ml, the “CPE/syncytia, +” value ([1]; 1 μg/ml, exposure during the entire experiment, washing off of cells No, 8th day) was 0 + and the “CPE/syncytia, +” value [1, 15] was 0 +. The “Number of cells × 10^3 ml” value [1, 15] was 2600 × 10^3 ml, the “CPE/syncytia, +” value ([1]; 10 μg/ml, 2 hrs of contact, washing off of cells No, 8th day) was 0 + and the “CPE/syncytia, +” value [1, 16] was 1.75+. The “Number of cells × 10^3 ml” value [1, 16] was 1500 × 10^3 ml, the “CPE/syncytia, +” value ([1]; 10 μg/ml, 2 hrs of contact, washing off of cells Yes, 8th day) was 3.0+ and the “CPE/syncytia, %” value [1, 17] was 0%. The “Number of cells in 1 ml × 1000” value [1, 17] was 1633 in 1 ml × 1000, the “CPE/syncytia, +” value [1, 18] was 0 + and the “Number of cells × 10^3 ml” value [1, 18] was 2300 × 10^3 ml. For the same substance, the “CPE/syncytia, +” value ([1]; 10 μg/ml, exposure 2 hrs (first such line, r25), washing off of cells Yes, 8th day) was 0 +, the “CPE/syncytia, +” value [1, 19] was 0 + and the “Number of cells × 10^3 ml” value [1, 19] was 1800 × 10^3 ml. The “CPE/syncytia, +” value ([1]; 10 μg/ml, exposure 2 hrs (second such line, r29), washing off of cells Yes, 8th day) was 0 +, the “CPE/syncytia, +” value [1, 20] was 0 + and the “Number of cells × 10^3 ml” value [1, 20] was 2300 × 10^3 ml. The “CPE/syncytia, +” value ([1]; 10 μg/ml, exposure 24 hrs, washing off of cells Yes, 8th day) was 0 +, the “CPE/syncytia, +” value [1, 21] was 0 + and the “Number of cells × 10^3 ml” value [1, 21] was 2500 × 10^3 ml. For the same substance, the “CPE/syncytia, +” value ([1]; 10 μg/ml, exposure during the entire experiment, washing off of cells No, 8th day) was 0 +, the “CPE/syncytia, %” value [1, 22] was 0% and the “Number of cells in 1 ml × 1000” value [1, 22] was 1500 in 1 ml × 1000. The “CPE/syncytia, %” value [1, 23] was 0%, the “Number of cells in 1 ml × 1000” value [1, 23] was 1100 in 1 ml × 1000 and the “CPE/syncytia, %” value [1, 24] was 0%. For the same substance, the “Number of cells in 1 ml × 1000” value [1, 24] was 1100 in 1 ml × 1000, the “CPE/syncytia, %” value [1, 25] was 0% and the “Number of cells in 1 ml × 1000” value [1, 25] was 1100 in 1 ml × 1000. The “Percentage of survived SPEV cells” value ([2]; 6.25 μg/ml, introduced 24 hours after infecting) was 0%, the “Percentage of survived SPEV cells” value ([2]; 6.25 μg/ml, introduced at the moment of infecting) was 0% and the “Percentage of survived SPEV cells” value ([2]; 12.5 μg/ml, introduced 24 hours after infecting) was 0%. For the same substance, the “Percentage of survived SPEV cells” value ([2]; 12.5 μg/ml, introduced at the moment of infecting) was 0%, the “Percentage of survived SPEV cells” value ([2]; 25 μg/ml, introduced 24 hours after infecting) was 0% and the “Percentage of survived SPEV cells” value ([2]; 25 μg/ml, introduced at the moment of infecting) was 0%. The “Percentage of survived SPEV cells” value ([2]; 50 μg/ml, introduced 24 hours after infecting) was 50%, the “Percentage of survived SPEV cells” value ([2]; 50 μg/ml, introduced at the moment of infecting) was 75% and the “Percentage of survived SPEV cells” value ([2]; 100 μg/ml, introduced 24 hours after infecting) was 100%. For the same substance, the “Percentage of survived SPEV cells” value ([2]; 100 μg/ml, introduced at the moment of infecting) was 100%, the Optical density ([3]; 0.5 μg/ml) was 2.147 and the Optical density ([3]; 1.0 μg/ml) was 0.165. The Optical density ([3]; 10 μg/ml) was 0.074, the “Virus in the culture medium” value ([3]; 10 μg/ml, HIV-1) was “not detected” and the “Cytodestructive action on non-infected M-21 cells” value [4] was “has not revealed cytodestructive action”. The “DNA fragmentation (apoptosis manifestations)” value [5] was “not recorded”, the “Redistribution of soluble and membrane Fas-antigen mRNA forms indicative of Fas-dependent apoptosis” value [5] was “no redistribution” and the “Redistribution of soluble and membrane Fas-antigen mRNA forms indicative of Fas-dependent apoptosis” value ([5]; listed as preparation) was “absent”. For the same substance, the “DNA fragmentation (apoptosis manifestations)” value ([5]; listed as preparation) was “absence”.
